These are literature values, as cited in US20200345666A1, “HERBAL MEDICINAL TABLET FORMULATION FOR TREATING OBESITY WHICH CAN BE […] ON SASANG CONS[…]” (NUBEBE CO., LTD., priority 2017, published 2020).

SMILES strings stand for the structures.

For this series the following is noted: taken for 20 weeks or more; Journal of Korean Medicine 2017.

For `CN[C@@H](C)[C@H](O)c1ccccc1` [ephedrine], the “weight and body fat loss compared to control group” value is “showed weight and body fat loss”.
